Measured values: patent EP0199247A2, “Cytostatic active medicine containing glycidyl amines” (priority 1985, dated 1986)

Test system: Tumorart P 388 (Leukämie)
Assay: P 388 leukemia survival test in mice (NCI protocol 1200)
Format: in vivo, Mäusen
Settings: i.p., 9-day treatment; for Verlängerungsrate T/C: P 388 i.p. 10^6 Zellen/Maus, untreated mean survival 10 days; for Zahl der Tiere aus jeweils einer Gruppe von 6 die 30 Tage überlebten: value in brackets, group of 6
From the text: Die nachfolgenden Versuche wurden durchgeführt nach Tcstvorschriften des National Canccr Institute Bethesda, Maryland 200014, veröffentlicht in "Cancer Chemotherany Renorts" Part. 3, Sept. 1972, Vol. 3, Nr. 2. Als Wirksubstanz wurde Triglycidylamin sowie 3-Chlorpropyl-diglycidylamin des vorstehenden Beisniels 4 verwendet. Die Substanz wurde als wäßrige 1 %ige Injektionslösung unmittelbar vor der Applikation frisch hergestellt.
Bei Mäusen wurde gemäß Protokoll 1200 (S. 91 c) die Tumorart P 388 (Leukämie) i.p. mit 10^6 Zellen/Maus gesetzt. Die unbehandelten Tiere hatten eine mittlere Überlebensdauer von 10 Tagen.
Mit den behandelten Testtieren, die einer 9-tägigen i.p. Behandlung mit der in Tabelle 1 angesehenen Dosis unterworfen wurden, wurde eine signifikante Verlängerung der Lebensdauer gegenüber der mittleren Überlebensdauer der nicht mit dem Wirkstoff behandelten Tiere erzielt. Die Verlängerunzstate T/C in Abhängigkeit von der Dosierung des Wirkstoffes ist in der Tabelle 1 zusammengestellt. Die Werte in Klammern bedeuten die Zahl der Tiere aus jeweils einer Gruppe von 6 die 30 Tage üherlebten.

| SMILES | Verlängerungsrate T/C (Dosis 1,87 mg/kg) [%] | Verlängerungsrate T/C (Dosis 3,75 mg/kg) [%] | Verlängerungsrate T/C (Dosis 7,50 mg/kg) [%] | Zahl der Tiere aus jeweils einer Gruppe von 6 die 30 Tage überlebten (Dosis 7,50 mg/kg) | Verlängerungsrate T/C (Dosis 0,48 mg/kg) [%] | Verlängerungsrate T/C (Dosis 0,97 mg/kg) [%] | Zahl der Tiere aus jeweils einer Gruppe von 6 die 30 Tage überlebten (Dosis 3,75 mg/kg) |
| --- | --- | --- | --- | --- | --- | --- | --- |
| ClCCCN(CC1CO1)CC1CO1 (stereo not drawn) [3-Chlorpropyl-diglycidylamin] | 179 | 181 | 303 | 3 |  |  |  |
| C1OC1CN(CC1CO1)CC1CO1 (stereo not drawn) [Triglycidylamin] | 252 | 303 |  |  | 148 | 174 | 6 |
